This is an account of results in ChEMBL document CHEMBL4138184 (J Nat Prod, 2017).

For test [1], the system named is MDA-MB-231. Briefly: Antiproliferative activity against human MDA-MB-231 cells after 24 hrs by MTT assay. To be noted: MDA-MB-231, 24 h. Type of test: functional, cell-based. In general terms: Tetrazolium dyes change colour on reduction, which living cells bring about.
Test [2] has as its system MCF7. Briefly: Antiproliferative activity against human MCF7 cells at 1 nM to 100 uM after 24 hrs by MTT assay relative to control. The format is functional. The settings on record: at 0.001 to 100 µM.
The nature of test [3]: Antiproliferative activity against mouse mammary carcinoma cell at 1 nM to 100 uM after 24 hrs by MTT assay relative to control. Type of test: functional. To be noted: at 0.001 to 100 µM.
Test [4] deals with MDA-MB-231. Briefly: Antiproliferative activity against human MDA-MB-231 cells at 1 nM to 100 uM after 24 hrs by MTT assay relative to control. Type of test: functional. To be noted: at 0.001 to 100 µM.
In test [5] the test system is BT-549. The test is described as follows: Antiproliferative activity against human BT549 cells at 1 nM to 100 uM after 24 hrs by MTT assay relative to control. The format is functional. The settings on record: at 0.001 to 100 µM.
Test [6] concerns MCF7. Briefly: Inhibition of cell migration in human MCF7 cells at 100 uM after 24 hrs by inverted fluorescence microscopy based scratch assay relative to control. Type of test: functional. To be noted: MCF7, 24 h.
Test [7] is described as follows: Inhibition of cell migration in mouse mammary carcinoma cell at 100 uM after 24 hrs by inverted fluorescence microscopy based scratch assay relative to control. Type of test: functional.
For test [8], the system named is MDA-MB-231. Briefly: Inhibition of cell migration in human MDA-MB-231 cells at 100 uM after 24 hrs by inverted fluorescence microscopy based scratch assay relative to control. The format is functional. To be noted: MDA-MB-231, 24 h.
Test [9] concerns BT-549. Briefly: Inhibition of cell migration in human BT549 cells at 100 uM after 24 hrs by inverted fluorescence microscopy based scratch assay relative to control. The settings on record: BT-549, 24 h. The format is functional.
The target in test [10] is T1, Melatonin receptor type 1A (Homo sapiens, UniProt P48039).
Test [11] concerns the target T1, Melatonin receptor type 1A. The source holds these as a separate data set.
Test [12] concerns BT-549. Briefly: Antiproliferative activity against human BT549 cells after 24 hrs by MTT assay. The format is functional, cell-based. To be noted: BT-549, 24 h.
Test [13] has as its system MCF7. The test is described as follows: Antiproliferative activity against human MCF7 cells after 24 hrs by MTT assay. The format is functional, cell-based. To be noted: MCF7, 24 h.
Test [14] can be described thus: Antiproliferative activity against mouse mammary carcinoma cell after 24 hrs by MTT assay. The format is functional.

T1 sequence (P48039 whole entry): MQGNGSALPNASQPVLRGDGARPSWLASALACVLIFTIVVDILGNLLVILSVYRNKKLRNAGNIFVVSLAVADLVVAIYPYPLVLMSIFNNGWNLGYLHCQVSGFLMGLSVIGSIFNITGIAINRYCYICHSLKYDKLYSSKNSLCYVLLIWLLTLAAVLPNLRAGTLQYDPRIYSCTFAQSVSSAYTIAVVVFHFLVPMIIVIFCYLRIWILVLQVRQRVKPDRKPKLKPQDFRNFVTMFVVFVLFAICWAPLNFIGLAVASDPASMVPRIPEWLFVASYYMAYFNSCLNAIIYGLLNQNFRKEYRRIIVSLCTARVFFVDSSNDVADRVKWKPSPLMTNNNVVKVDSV

For orientation: IC50 means the point on the concentration scale where inhibition reaches its midpoint. Higher therefore signals a need for much substance. For orientation: inhibition means the drop in the measured response relative to a control, in per cent. On to `CC(C)=CCC/C(C)=C/CC/C(C)=C/COc1ccc2ccc(=O)oc2c1` [UMBELLIPRENIN], for which the IC50 in the test on MDA-MB-231 [1] worked out at 30 µM. Further, the Efficacy was 81% in the test with MCF7 [2], 61% in test [3], 60% in the test on MDA-MB-231 [4] and 85% in the test with BT-549 [5]. Besides, the inhibition at 100 µM in the test with MCF7 [6] was 9%; in test [7] it was 7%; with MDA-MB-231 [8], -52%; in the test with BT-549 [9] it was 23%. Further, in [10], the KiH was 1.6 nM. For the same compound, the KiL in [10] stood at 3.3 nM.

In general, Ki refers to a measure of affinity in units of concentration, obtained from inhibition or displacement. Consider `CC(C)=CCOc1ccc2ccc(=O)oc2c1` [7-PRENYLOXYCOUMARIN], for which the Ki in test [11] worked out at 5.2 µM. The compound further showed an IC50 with BT-549 [12] of 37 µM. In addition, the Efficacy was found to be 105% with MCF7 [2], 98% in test [3], 83% in the test on MDA-MB-231 [4] and 94% in the test on BT-549 [5].

Take `COc1cc(/C=C/C(=O)O)ccc1OCC=C(C)C` [BOROPINIC ACID]: the IC50 in the test with MCF7 [13] amounted to 0.7 µM; in test [14], 6.1 µM; in the test on BT-549 [12], 15 µM. The Efficacy was found to be 102% in the test with MCF7 [2], 98% in test [3], 89% with MDA-MB-231 [4] and 97% in the test with BT-549 [5].

In test [11], `COc1cc(/C=C/C(=O)O)ccc1OC/C=C(\C)CCC=C(C)C` had a Ki of 59 µM. Besides, the figures for the IC50 (in test [14]; in the test on MDA-MB-231 [1]; with BT-549 [12]) were 2.5 µM, 22 µM and 5.6 µM, respectively. In addition, the Efficacy in the test on MCF7 [2] was determined as 102%; in [3] it was 99%; with MDA-MB-231 [4] it was 79%; in the test with BT-549 [5], 93%.

The compound `COc1cc(/C=C/C=O)ccc1OCC=C(C)C` [BOROPINAL] came in with a Ki in test [11] of 0.786 µM. Further, the IC50 in test [14] turned out to be 0.22 µM; in the test with MDA-MB-231 [1] it was 63 µM; with BT-549 [12], 0.045 µM. The Efficacy amounted to 94% in the test on MCF7 [2], 96% in [3], 79% in the test with MDA-MB-231 [4] and 83% in the test on BT-549 [5].

In the case of `COc1cc(/C=C/C(=O)O)ccc1O` [FERULATE], the results for the IC50 in the test with MDA-MB-231 [1] and with BT-549 [12] were 0.5 µM and 1.2 µM, respectively. In addition, the Efficacy with MCF7 [2] is reported as 96%; in [3], 100%; with MDA-MB-231 [4], 92%; in the test on BT-549 [5], 99%.

As for `COc1ccc2[nH]cc(CCNC(C)=O)c2c1` [MELATONIN], the IC50 in test [14] stood at 0.2 µM; with MDA-MB-231 [1], 0.9 µM; in the test with BT-549 [12], 30000 µM. In addition, the Efficacy came out at 87% in the test with MCF7 [2], 91% in test [3], 92% with MDA-MB-231 [4] and 91% in the test with BT-549 [5].

With `O=c1ccc2ccc(O)cc2o1` [UMBELLIFERONE], the IC50 in the test on MCF7 [13] stood at 2.9 µM; with MDA-MB-231 [1], 3.7 µM; in the test with BT-549 [12] it was 1000 µM. Moreover, the Efficacy with MCF7 [2] was 124%; in test [3], 93%; in the test with MDA-MB-231 [4] it was 88%; with BT-549 [5] it was 91%.

`CC(C)=CCC/C(C)=C/COc1ccc2ccc(=O)oc2c1` yielded a Ki in [11] of 1.9 µM. Besides, the half-maximal inhibitory concentration (IC50) was 80 µM in the test on MDA-MB-231 [1] and 24 µM in the test on BT-549 [12]. Besides, the Efficacy in the test with MCF7 [2] amounted to 90%; in test [3], 57%; in the test on MDA-MB-231 [4], 67%; in the test on BT-549 [5], 86%. In addition, the inhibition at 100 µM with MCF7 [6] is 3%; in test [7] it was 5%; with MDA-MB-231 [8], -36%; in the test with BT-549 [9], 7%.

The compound `O=c1ccc2ccc(O/C=C/c3ccccc3)cc2o1` had a Ki in [11] of 0.37 µM. For the same compound, the IC50 with MCF7 [13] is 2.2 µM; in the test with MDA-MB-231 [1], 6.6 µM; with BT-549 [12], 140 µM. The Efficacy with MCF7 [2] stood at 87%; in [3], 93%; with MDA-MB-231 [4], 82%; in the test on BT-549 [5] it was 86%.

Take `CCC#CCOc1ccc2ccc(=O)oc2c1` [7-(2-PENTYNYLOXY)COUMARIN]: in test [11], the Ki worked out at 0.888 µM. The IC50 worked out at 50 µM in the test with MCF7 [13], 24 µM in test [14] and 74 µM in the test with BT-549 [12]. The Efficacy in the test with MCF7 [2] worked out at 89%; in [3], 101%; in the test with MDA-MB-231 [4], 87%; in the test on BT-549 [5], 86%.
